According to patent publication US20250197428A1, “INHIBITORS OF KIF18A AND USES THEREOF” (ACCENT THERAPEUTICS, INC., priority 2022, published 2025):
Where two headings read alike, the source gives them in different places.

What was measured:
[1] = Caco-2 permeation assay, bidirectional permeability; format: in vitro ADME; details: human, Caco-2, pH 7.4, 5 μM, Papp(B-A)/Papp(A-B)
Experimental: 1. Caco-2 Permeation Assay: Evaluation of the Bidirectional Permeabilities of Compounds.
Samples were analyzed through LC/MS/MS for estimating the apparent permeability coefficients (Papp) of compounds across Caco-2 cell monolayers. Caco-2 cells (American Type Culture Collection) were incubated and seeded onto HTS Transwell-96 Well Permeable Supports (Corning Corporation) for 14 days using a cell medium consisting of Dulbecco's Modified Eagle's Medium (DMEM) with high glucose and L-glutamine supplemented with 10% FBS, 1× penicillin-streptomycin mixture and 1×non-essential amino acids (NEAA). Cell monolayer integrity was measured using an automated tissue resistance measuring system (World Precision Instruments). Stock solutions of compounds and control compounds in DMSO were diluted with HBSS (10 mM HEPES, pH 7.4) to reach a final concentration of 5 μM with a final concentration of DMSO <0.1%. HBSS was then removed after 30 minutes of preincubation, and 75 μL of test compound was added to the apical compartment of the Transwell insert. The basolateral compartment was filled with 235 μL of HBSS (10 mM HEPES, pH 7.4) containing 2% BSA. Rate of drug transport in the basolateral to apical direction was obtained by adding 235 μL of test compound to the receiver plate wells (basolateral compartment) and filling with 75 μL of HBSS (10 mM HEPES, pH 7.4) containing 2% BSA. Time 0 samples were prepared by transferring 25 μL of 5 μM working solution to wells of the 96-deepwell plate containing 25 μL HBSS (10 mM HEPES and 2% BSA, pH 7.4), followed by the addition 200 μL of cold methanol containing appropriate internal standards (100 nM alprazolam, 200 nM labetalol, 200 nM caffeine and 200 nM diclofenac). After incubating at 37° C. for 2 h, 25 μL samples from donor sides (apical compartment) were transferred to a 96-well plate containing 25 μL HBSS (10 mM HEPES and 2% BSA, pH 7.4). 25 μL samples from receiver sides (basolateral compartment) were removed and transferred to a new plate containing 25 μL HBSS (10 mM HEPES, pH 7.4). 200 μL of cold methanol containing internal standards (100 nM alprazolam, 200 nM labetalol, 200 nM caffeine and 200 nM diclofenac) was added to terminate the reaction. Samples were vortexed for 5 minutes and then centrifuged at 3,220 g for 40 minutes. An aliquot of 100 μL of the supernatant is mixed with 100 μL of ultra-pure water for LC-MS/MS analysis. All incubations are performed in duplicate. Solutions were discarded from the transwell plate. 100 μL Lucifer Yellow solution (100 μM in HBSS) was added to each well of transwell insert and 300 μL of HBSS to each well of receiver. After incubating at 37° C. for 30 minutes, 80 μL was aliquotted from each well of apical and basolateral sides to a solid black plate. The plate was then read with Tecan Infinite™ M 200 (Excitation/Emission wavelength […]).
All calculations were carried out using Microsoft Excel. Peak areas were determined from extracted ion chromatograms. The leakage of Lucifer Yellow, in unit of percentage (%), can be calculated using the following equation: […]
LY leakage of <1% is acceptable to indicate the well-qualified Caco-2 monolayers. The apparent permeability coefficient (Papp), in units of centimeter per second, can be calculated for Caco-2 drug transport assays using the following equation: […]
Where VA is the volume (in mL) in the receiver well (0.235 mL for Ap→Bl flux and 0.075 mL for Bl→Ap flux), Area is the surface area of the membrane (0.143 cm^2 for HTS Transwell-96 Well Permeable Supports), and time is the total transport time in seconds. The efflux ratio can be determined using the following equation: […]
Where Papp (B-A) indicates the apparent permeability coefficient in basolateral to apical direction, and Papp (A-B) indicates the apparent permeability coefficient in apical to basolateral direction.
The recovery can be determined using the following equation: […]

KIF18A = KIF18A (Homo sapiens (Human), UniProt Q8NI77); test: KIF18A Biochemical Assay (ATPase, ADP-Glo)
Chain of KIF18A (Q8NI77 1-367): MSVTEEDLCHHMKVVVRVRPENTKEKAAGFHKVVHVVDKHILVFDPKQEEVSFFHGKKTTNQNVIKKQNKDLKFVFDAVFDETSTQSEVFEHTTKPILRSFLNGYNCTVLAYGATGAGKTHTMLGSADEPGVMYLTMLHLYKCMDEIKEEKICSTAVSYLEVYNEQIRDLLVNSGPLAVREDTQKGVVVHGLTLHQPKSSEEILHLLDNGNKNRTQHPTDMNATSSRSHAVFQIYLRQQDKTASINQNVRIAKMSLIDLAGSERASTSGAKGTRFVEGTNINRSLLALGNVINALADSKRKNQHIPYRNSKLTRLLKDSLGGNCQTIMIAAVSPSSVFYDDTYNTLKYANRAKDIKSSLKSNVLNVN
Chain of KIF18A (P02550 whole entry partner): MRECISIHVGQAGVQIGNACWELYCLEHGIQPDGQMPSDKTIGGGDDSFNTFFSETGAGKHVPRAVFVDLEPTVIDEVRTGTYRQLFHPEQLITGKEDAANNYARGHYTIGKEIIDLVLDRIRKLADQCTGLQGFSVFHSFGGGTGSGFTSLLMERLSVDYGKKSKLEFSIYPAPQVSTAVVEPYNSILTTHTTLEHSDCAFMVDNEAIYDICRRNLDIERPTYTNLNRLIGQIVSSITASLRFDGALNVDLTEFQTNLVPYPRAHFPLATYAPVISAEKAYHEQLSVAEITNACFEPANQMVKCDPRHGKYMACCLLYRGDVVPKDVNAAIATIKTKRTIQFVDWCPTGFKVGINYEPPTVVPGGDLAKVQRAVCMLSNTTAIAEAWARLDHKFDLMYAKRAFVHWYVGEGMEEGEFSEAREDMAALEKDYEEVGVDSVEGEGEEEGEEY
Chain of KIF18A (P02554 whole entry partner): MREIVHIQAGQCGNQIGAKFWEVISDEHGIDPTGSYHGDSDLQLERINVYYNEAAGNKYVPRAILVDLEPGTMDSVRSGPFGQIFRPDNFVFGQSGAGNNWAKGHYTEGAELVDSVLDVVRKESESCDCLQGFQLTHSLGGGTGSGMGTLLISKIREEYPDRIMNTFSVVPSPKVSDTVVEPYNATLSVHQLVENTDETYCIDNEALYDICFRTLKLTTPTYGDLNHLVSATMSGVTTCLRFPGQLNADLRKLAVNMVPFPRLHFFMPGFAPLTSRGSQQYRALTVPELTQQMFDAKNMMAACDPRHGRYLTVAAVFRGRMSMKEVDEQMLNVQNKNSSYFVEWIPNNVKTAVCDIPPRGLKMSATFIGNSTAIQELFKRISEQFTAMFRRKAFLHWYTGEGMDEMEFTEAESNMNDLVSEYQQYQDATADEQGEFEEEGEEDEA

OVCAR-3 cells = test: In vitro anti-proliferative activity assay in cancer cell line OVCAR-3 (CellTiter-Glo, 4- or 7-day); format: cell-based; details: Homo sapiens, read-out: OVCAR-3 cellular antiproliferation assay IC50

| Compound | efflux ratio at 2 h, 5 μM [1] | IC50 (KIF18A) [nM] | IC50 (OVCAR-3 cells; OVCAR-3, 96 h, 4-day assay) [nM] | IC50 (OVCAR-3 cells; OVCAR-3, 168 h, 7-day assay) [nM] |
| --- | --- | --- | --- | --- |
| C[C@H]1CN(c2cccc(NC(=O)c3ccc(NS(=O)(=O)CCO)cc3N3CC[Si](C)(C)CC3)n2)CCO1 [Example 17] | ≥ 10 | < 100 | < 100 | – |
| Cc1cc(NC(=O)c2ccc(NS(=O)(=O)CCO)cc2N2CC[Si](C)(C)CC2)nc(N2CCOC(F)(F)C2)n1 [Example 115] | ≥ 10 | < 100 | – | 100 to 500 |
| Cc1cc(NC(=O)c2ccc(S(=O)(=O)NCCO)cc2N2CC[C@@]3(C(F)F)C[C@H]3C2)nc(N2CCC(F)(F)CC2)n1 [Example 78] | < 10 | < 100 | – | 100 to 500 |
| C[Si]1(C)CCN(c2cc(NS(C)(=O)=O)ccc2C(=O)Nc2cccc(OC[C@@H](O)C(F)(F)F)n2)CC1 [Example 127] | < 10 | < 100 | – | < 100 |
| COC[C@@]12CCN(c3cc(NS(=O)(=O)CCO)ccc3C(=O)Nc3cc(C)nc(N4CCC(F)(F)CC4)n3)C[C@@H]1C2 (single isomer, unassigned) [Example 49b] | < 10 | < 100 | – | < 100 |
| C[Si]1(C)CCN(c2cc(S(=N)(=O)C3CC3)ccc2C(=O)Nc2cccc(N3CCC(F)(F)CC3)n2)CC1 (stereo not drawn) [Example 120] | < 10 | < 100 | – | < 100 |
| O=C(Nc1cccc(N2CCC(F)(F)CC2)n1)c1ccc(NS(=O)(=O)CCO)cc1N1CC[C@@]2(C(F)F)C[C@H]2C1 [Example 66] | < 10 | < 100 | – | < 100 |
| Cc1cc(NC(=O)c2ccc(NS(=O)(=O)CCO)nc2N2CC[Si](C)(C)CC2)nc(N2CCC(F)(F)CC2)n1 [Example 109] | < 10 | < 100 | – | 500 to 1000 |
| O=C(Nc1ccnc(N2CCC(F)(F)CC2)n1)c1c(F)cc(NS(=O)(=O)CCO)cc1N1CC[C@@]2(C(F)F)C[C@H]2C1 [Example 70] | ≥ 10 | < 100 | – | < 100 |
| Cc1cc(NC(=O)c2ccc(NS(=O)(=O)CCO)cc2N2CC[Si](C)(C)CC2)nc(N2CCC3(CC3)C2)n1 [Example 21] | < 10 | 100 to 500 | 100 to 500 | – |
| Cc1cc(NC(=O)c2ccc(NS(=O)(=O)CCO)cc2N2CCC3CC3C2)nc(N2CCC(F)(F)CC2)n1 (stereo not drawn) [Example 34] | ≥ 10 | < 100 | 100 to 500 | – |
| C[Si]1(C)CCN(c2cc(NS(=O)(=O)CCO)ccc2C(=O)Nc2ccnc(N3CCC(F)(F)CC3)c2)CC1 [Example 7, N-(2-(4,4-difluoropiperidin-1-yl)pyridin-4-yl)-2-(4,4-dimethyl-1,4-azasilinan-1-yl)-4-((2-hydroxyethyl)sulfonamido)benzamide] | ≥ 10 | < 100 | < 100 | – |
| CC(CO)S(=O)(=O)Nc1ccc(C(=O)Nc2cccc(OCCC(F)(F)F)n2)c(N2CC[Si](C)(C)CC2)c1 (stereo not drawn) [Example 113] | < 10 | < 100 | – | 100 to 500 |
| Cc1cc(NC(=O)c2ccc(NS(=O)(=O)CCO)cc2N2CC[C@]3(C(F)F)C[C@@H]3C2)nc(N2CCC(F)(F)CC2)n1 [Example 58] | ≥ 10 | < 100 | – | < 100 |
| CC1CN(c2nccc(NC(=O)c3ccc(NS(=O)(=O)CCO)cc3N3CC[Si](C)(C)CC3)n2)CCO1 (stereo not drawn) [Example 11] | < 10 | < 100 | < 100 | – |
| Cc1cc(NC(=O)c2c(F)cc(NS(=O)(=O)CCO)cc2N2CC[Si](C)(C)CC2)nc(N2CCC(F)(F)CC2)n1 [Example 110] | < 10 | < 100 | – | < 100 |

| Compound | efflux ratio at 2 h, 5 μM [1] | IC50 (KIF18A) [nM] | IC50 (OVCAR-3 cells; OVCAR-3, 96 h, 4-day assay) [nM] | IC50 (OVCAR-3 cells; OVCAR-3, 168 h, 7-day assay) [nM] |
| --- | --- | --- | --- | --- |
| C[Si]1(C)CCN(c2cc(NS(=O)(=O)CCN)ccc2C(=O)Nc2cccc(N3CCC(F)(F)CC3)n2)CC1 [Example 100] | < 10 | < 100 | – | 100 to 500 |
| Cc1cc(NC(=O)c2cnc(NS(=O)(=O)CCO)cc2N2CC[Si](C)(C)CC2)nc(N2CCC(F)(F)CC2)n1 [Example 106] | < 10 | < 100 | – | < 100 |
| C[Si]1(C)CCN(c2cc(NS(=O)(=O)CCO)ccc2C(=O)Nc2ccnc(N3CCCC(C#N)C3)n2)CC1 (stereo not drawn) [Example 94] | < 10 | – | 100 to 500 | – |
| Cc1cc(NC(=O)c2ccc(NS(C)(=O)=O)cc2N2CC[Si](C)(C)CC2)nc(N2CC(F)(F)C2)c1 [Example 20] | < 10 | 100 to 500 | 100 to 500 | – |
| Cc1cc(NC(=O)c2ccc(NS(=O)(=O)NCCO)cc2N2CC[C@]3(C(F)F)C[C@@H]3C2)nc(N2CCC(F)(F)CC2)n1 [Example 56] | ≥ 10 | < 100 | – | 100 to 500 |
| Cc1cc(NC(=O)c2ccc(NS(=O)(=O)[C@@H](C)CO)cc2N2CC[Si](C)(C)CC2)nc(N2CCC(F)(F)CC2)n1 [Example 112] | ≥ 10 | < 100 | – | 100 to 500 |
| C[Si]1(C)CCN(c2cc(NS(=O)(=O)CCO)ccc2C(=O)Nc2cccc(N3CCC(F)(F)CC3)c2)CC1 [Example 6, N-(3-(4,4-difluoropiperidin-1-yl)phenyl)-2-(4,4-dimethyl-1,4-azasilinan-1-yl)-4-((2-hydroxyethyl)sulfonamido)benzamide] | < 10 | < 100 | < 100 | – |
| Cc1cc(NC(=O)c2ccc(NS(=O)(=O)CCO)cc2N2CC[C@]3(C)C[C@@H]3C2)nc(N2CCC(F)(F)CC2)n1 [Example 35] | < 10 | < 100 | 100 to 500 | – |
| Cc1cc(NC(=O)c2ccc(NS(C)(=O)=O)cc2N2CC[C@]3(C(F)F)C[C@@H]3C2)nc(N2CCC(F)(F)CC2)n1 [Example 54] | < 10 | < 100 | – | 100 to 500 |
| CC(C)(C)NS(=O)(=O)c1cccc(NC(=O)c2ccc(NS(=O)(=O)CCO)cc2N2CC[Si](C)(C)CC2)n1 [Example 98] | < 10 | < 100 | < 100 | – |
| C[Si]1(C)CCN(c2cc(NS(=O)(=O)CCO)ccc2C(=O)Nc2cccc(OC[C@@H](O)C(F)(F)F)n2)CC1 [Example 121] | < 10 | < 100 | – | < 100 |
| C[Si]1(C)CCN(c2cc(NS(=O)(=O)CCO)ccc2NC(=O)c2cccc(N3CCC(F)(F)CC3)n2)CC1 [Example 96] | < 10 | – | < 100 | – |
| C[Si]1(C)CCN(c2cc(NS(=O)(=O)CCO)c(F)cc2NC(=O)c2ccnc(N3CCC(F)(F)CC3)n2)CC1 [Example 90] | < 10 | – | – | 100 to 500 |
| C[Si]1(C)CCN(c2cc(NS(=O)(=O)CCO)cc(F)c2C(=O)Nc2cccc(OC[C@@H](O)C(F)(F)F)n2)CC1 [Example 123] | – | < 100 | – | 500 to 1000 |
| C[Si]1(C)CCN(c2cc(NS(=O)(=O)CCO)ccc2C(=O)Nc2cccc(C3(C(F)(F)F)N=N3)c2)CC1 [Example 87] | – | < 100 | – | 100 to 500 |
| O=C(Nc1ccnc(N2CCC(F)(F)CC2)n1)c1c(F)cc(NS(=O)(=O)CCO)cc1N1CC[C@]2(C(F)F)C[C@@H]2C1 [Example 69] | – | < 100 | – | > 1000 |
